Ends that are not written are not given here.

The test system of test [1] is SU2 envelope peptide. In words: Seroconversion ELISA after the virulence test, SU2 peptide. The format is in vivo, cats. The method, then:
The cats are subjected to a virulence test, one week after the final immunization, by means of an intraperitoneal inoculation of 10 CID50 of FIV Wo isolate, one CID50 corresponding to the dose capable of infecting 50% of the cats.
The production on of antibodies is evaluated before the test by means of an ELISA using an immobilized peptide (SU2, SU5, TM2 or TM3-19) and immunoprecipitation. After the test, the seroconversion is monitored by an ELISA using immobilized envelope peptides and a recombinant FTV capsid protein.
The ELISA with the immobilized envelope peptides corresponding to the immunogenic domains SU2 and TM2 and with the immobilized recombinant p25 protein (FIV capsid protein) is carried out as described in Avraméas A. et al. (Res. Virol., 1993, 144, 209-218).
Microplates (Immunolon II, Dynatech) are coated with 0.5 μg/well for the peptides and with 0.1 μg/well for the p25 protein.
The tests are carried out in duplicate and the results are expressed as average values.
After the test, the seroconversion against the envelope peptides and the p25 protein is evaluated at serum dilutions of 1/25 and 1/100, respectively.
The absorbance values (at 405 nm) are corrected by subtraction of the absorbance values obtained by binding with an immobilized control peptide.
The tests are normalized with reference to the binding of a mixture of serum from cats infected with FIV with a peptide representing the immunodominant domain of the FIV transmembrane glycoprotein (TM2) (Avraméas A. et al., Res. Virol., 1993, 144, 209-218).
In general terms: An ELISA detects its analyte on a solid surface through an enzyme-linked reagent.

The test system of test [2] is FIV Wo isolate. In words: Viral load in the tissues by competitive RT-PCR. The format is in vivo, cats. The following applies: 5 weeks after the test, FIG. 4. The source says: The cats are sacrificed five weeks after the virulence test. The lymphoid organs (spleen, thymus, axial lymphatic ganglia) are recovered and frozen in liquid nitrogen, for extraction of the RNA.
Frozen spleen and thymus tissues are reduced to powder and immediately dispersed in the lysis buffer provided with the RNA extraction kit (RNeasy, Qiagene), with the aid of a tissue homogenizer (Ultra-Turrax). The frozen axillary lymphatic ganglia are dispersed directly in the lysis buffer; the RNA is then extracted using the RNeasy kit, according to the manufacturer's instructions.
The contaminant DNA is removed by hydrolysis with DNase 1 (RQ1. RNase-free DNase, Promega).
The viral load in the tissues is evaluated 5 weeks after the test by counting the number of copies of viral RNA in the axillary lymphatic ganglia and in the thymus by competitive RT-PCR.
Given that the amplified fragment (amplicon) is located in the intron of the sub-genomic viral RNA, the copies of viral RNA counted in the tissues represent the complete transcripts, which are either intracellular or encapsidated in the extracellular viral particles.

Test [3] relates to envelope glycoproteins of the Wo strain. Kind of test: Immunoprecipitation of envelope glycoproteins by sera (infected PBM cells). The format is in vivo. The settings on record: PBM cell lysates after acute infection with FIV Wo; group of four cats. The source says: The sera collected on the day of the test (at a dilution of 1/40) are used to immunoprecipitate the envelope glycoproteins derived from the metabolically labelled FL-4 cells and feline mononuclear cells (PBM cells) infected with the FIV Wo strain, as described in G. Pancino et al. (Virology, 1995, 206, 796-806).
Given that the TM3-19 peptide, deduced from the Env sequence of the FIV Wo strain, comprises 4 different residues out of 19, relative to the Petaluma sequence, the capacity to immunoprecipitate sera before the test of the cats immunized with the TM3-19 peptide was tested against the envelope glycoproteins of the Wo strain, obtained from PBM cell lysates after acute infection with the FIV Wo strain.

The mark [4] stands for this setting: ELISA, seral dilution 1/25, individual cats.

As for “KKGLQQLQEWEDWVGWIGN [TM3-19, 19-amino-acid fragment of the TM3 domain of the FIV Wo Env transmembrane glycoprotein (759-777)]”, in test [1] (5 weeks after the test), the “antibody response with respect to the SU2 peptide” value is listed as “none of the cats immunized with the TM3-19 peptide developed a detectable antibody response”. Further, in test [1] (setting [4]), the “Binding of the sera to SU2, 3 weeks after the virulence test” value worked out at 0 optical density; the “Binding of the sera to SU2, 4 weeks after the virulence test” value turned out to be 0 optical density; the “Binding of the sera to SU2, 5 weeks after the virulence test” value was found to be 0 optical density. In test [2], the “level of viral RNA in the spleen” value was “particularly low in one cat (348)”; the “levels of viral RNA in the axillary lymphatic ganglia” value is “lower in three cats (346, 348 and 349)”. Moreover, the “cats whose sera precipitate the envelope protein of the Wo strain” value in test [3] is recorded as “only the sera of 2 cats (346, 347)”.

Source of the values: patent US6391304B1, “Peptides derived from the ENV gene of the feline immunodeficiency virus and their applications” (Centre National de la Recherche Scientifique, priority 1997, dated 2002).
